The test system of assay [1] is Mus musculus. The assay is described as follows: In vivo antitumor activity of compound against leukemia L1210 cell line at 4 mg/kg. Also on record: dose 4 mg/kg. The assay is classed as functional, organism-based.
In another assay the test system is L1210. The assay is described as follows: In vitro cytotoxicity activity of compound against leukemia L1210 cell line. The assay is classed as functional, cell-based, Mus musculus.
Assay [2] relates to Mus musculus. The assay is described as follows: In vivo antitumor activity of compound against leukemia L1210 cell line at 60/30 mg/kg; value expressed as 102/106. Format: functional.
For assay [3], the system named is Mus musculus. Description: In vivo antitumor activity of compound against leukemia L1210 cell line at 60/30 mg/kg; value expressed as 97/107. Format: functional.
Assay [4] deals with Mus musculus. The assay is described as follows: In vivo antitumor activity of compound against leukemia L1210 cell line at 40 mg/kg. Format: functional, organism-based. Also on record: dose 40 mg/kg.

Usually T/C stands for the ratio of treated to control. With CISPLATIN, in the assay on Mus musculus [1], the T/C was 184%. In general, IC50 refers to the point on the concentration scale where inhibition reaches its midpoint. Low values mean inhibition by little substance, high ones a need for much substance. `COCCOCCOCCOC(C)c1c(C)c2cc3[nH]c(cc4nc(cc5nc(cc1[nH]2)C(C)=C5CCC(=O)O)C(CCC(=O)O)=C4C)c(C)c3C(C)OCCOCCOCCOC` (configuration not stated) registered an IC50 in the assay on L1210 (Mus musculus, L1210) of 6.6 µM. Besides, the T/C with Mus musculus [2] came out at 106%.

Turning to CARBOPLATIN [listing 1 of 2 here], the half-maximal inhibitory concentration (IC50) in the assay on L1210 (l1210) amounted to 9.92 µM. In the assay with L1210 (Mus musculus, L1210), `COCCOC(C)c1c(C)c2cc3[nH]c(cc4nc(cc5nc(cc1[nH]2)C(C)=C5CCC(=O)O)C(CCC(=O)O)=C4C)c(C)c3C(C)OCCOC` (configuration not stated) came in with an IC50 of 2.6 µM. Also, the T/C in the assay with Mus musculus [3] was 107%. For the compound CARBOPLATIN [listing 2 of 2 here], the T/C in the assay with Mus musculus [4] came out at 168%.

For the origin of these results see ChEMBL document CHEMBL1146761, “Synthesis and biological activity of novel platinum(II) complexes of glutamate tethered to hydrophilic hematoporphyrin derivatives” (Bioorg Med Chem Lett, 2004).
